Read-outs that look alike come from different tables or passages of the source.
How the values were obtained:
[1] = system: CB1 receptor; set-up: method as in Herance et al., 2011; settings: knock-out n = 4, wild-type n = 4; period 40–60 min; ref Herance et al., 2011; cited from earlier work
[2] = system: CB1 receptor; set-up: method as in Horti et al., 2006; settings: ref Horti et al., 2006; cited from earlier work
[3] = target: CB1 receptor; set-up: method as in Burns et al., 2007; Liu et al., 2007; settings: ref Burns et al., 2007, Liu et al., read-out: affinity to the CB1 receptor, IC50; cited from earlier work
[4] = system: CB1 receptor; assay: [18F]MK-9470 PET in a CB1 receptor knock-out mouse and a wild-type mouse (re-analysis of the whole time course); assay type: in vivo
Procedure: (§1) Two mice, a CB1 receptor-deficient mouse, and a wild-type mouse, whose data acquisition is described in Miederer et al. ([2013]), were re-analyzed.
(§2) (A) Left: CB1 receptor knock-out mouse, right: wild-type mouse. Positron emission tomography (PET) images were summed from 40 to 60 min [injected radioactivity: 8.5 MBq (CB1^−/−) and 8.0 MBq (CB1^+/+), anaesthesia: 0.2 ml xylazine/ketamine, data acquisition: 60 min]. (B) Standardized volumes-of-interest (VOI) were drawn for the whole mouse brains (n = 2). Extracted radioactivity concentrations were normalized to the maximum radioactivity concentration in the wild-type mouse.

[5] = set-up: method as in Burns et al., 2007; Liu et al., 2007; settings: ref Burns et al., 2007, Liu et al.; cited from earlier work
[6] = system: CB1 receptor; settings: human brain; ref Burns et al., 2007; cited from earlier work
[7] = system: CB1 receptor; settings: cited from earlier work
[8] = target: T1, CB1 receptor (Mus musculus, UniProt P47746); assay: [18F]MK-9470 small animal PET of the mouse brain (%ID/ml, 40–60 min); assay type: in vivo, mouse (C57BL/6J); set-up: Six male C57BL/6J mice; from tissue; host or cells: brain of living male C57BL/6J mice (in vivo PET); settings: for [^18F]MK-9470 %ID/ml: PET 40–60 min, mean ± SD
T1 sequence (P47746 whole entry): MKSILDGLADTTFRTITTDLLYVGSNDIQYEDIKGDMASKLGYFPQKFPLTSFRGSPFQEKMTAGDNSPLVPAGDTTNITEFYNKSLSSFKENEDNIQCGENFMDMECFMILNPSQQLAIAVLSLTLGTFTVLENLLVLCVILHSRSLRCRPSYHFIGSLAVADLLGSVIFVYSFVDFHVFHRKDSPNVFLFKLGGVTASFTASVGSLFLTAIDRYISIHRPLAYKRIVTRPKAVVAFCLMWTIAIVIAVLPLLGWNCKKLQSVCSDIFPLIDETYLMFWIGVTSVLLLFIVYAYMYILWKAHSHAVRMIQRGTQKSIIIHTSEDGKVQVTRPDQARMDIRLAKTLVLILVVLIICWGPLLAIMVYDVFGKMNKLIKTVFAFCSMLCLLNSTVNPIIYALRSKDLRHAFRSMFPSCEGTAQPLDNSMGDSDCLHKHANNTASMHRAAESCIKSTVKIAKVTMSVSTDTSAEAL
Source text: Six male C57BL/6J mice (21.5–28.1 g, 6–9 weeks of age; obtained from the Translational Animal Research Center—TARC of the University Medical Center Mainz) were examined. All applicable international, national, and/or institutional guidelines for the care and use of animals were followed. This study was approved by the respective state authorities (Landesuntersuchungsamt Rheinland-Pfalz).
Isoflurane inhalation anesthesia (2% isoflurane vaporized in 60% oxygen) was used to immobilize the mice, which were positioned in the small animal PET scanner in the headfirst prone position. A venous catheter, which was placed in one of the tail veins, was used to inject [^18F]MK-9470. Together with the injection, a 60-min PET measurement was started with a Focus 120 small animal PET scanner (Siemens/CTI, Knoxville, TN, USA). This small animal PET scanner has lutetium oxyorthosilicate detectors having a size of 1.5 × 1.5 × 10 mm^3 for coincidence detection of photons (time window: 6 ns). The resolution in the center of the field of view is ≤1.4 mm. As part of the quality control, a detector normalization and cross-calibration with a dose calibrator (VDC 404, Veenstra Instruments, Joure, Netherlands) were performed regularly. The PET data acquisition took place in the list mode data format.
The list-mode data, acquired for this study, were sorted into a sinogram matrix with frames of 3 × 20, 3 × 60, 3 × 120, 10 × 300 s (=19 frames). The data were reconstructed with filtered back-projection [ramp filter (cut-off = 0.5)] into a 128 × 128 matrix with 95 slices of 0.8 mm thickness (pixel size 0.87 × 0.87 mm^2). Corrections included detector dead time and random coincidences, which yielded images in the unit Bq/ml.
PET data were co-registered to the T2-weighted magnetic resonance image (MRI) template provided by the PMOD software (version 4.0, Zurich, Switzerland) based on the work of Ma et al. ([2005]) and Mirrione et al. ([2007]). […] The outcome parameter was calculated as %ID/ml = mean value of the radioactivity concentration (in the unit Bq/ml)/injected radioactivity (in the unit Bq) × 100% and included the 40–60 min acquisition interval for individual brain regions. All results were reported as mean ± standard deviation. A two-tailed paired t-test was used to compare means for VOI of different receptor densities and thus, four main comparisons were defined before the analyses: cerebellum vs. pons, caudate putamen vs. pons, cerebellum vs. hippocampus, and hippocampus vs. pons. The global significance level was αglobal = 0.05 and a Bonferroni correction yielded a local significance level of αlocal = 0.0125.
To facilitate the comparison between (quantitative, continuous) PET data and (qualitative) IHC data, the data were classified into four categories, namely no (−), low (+), mean (++) and high (+++) accumulation of the radioactivity concentration or immunohistochemical staining. The IHC data were classified based on visual inspections of the results and their descriptions in the literature sources. Statements such as “little or no,” “few” or “void” led to a classification of “–.” Statements like “low,” “some” or “weak” were classified as “+.” Descriptions like “network of CB1-immunoreactive fibers” or “intensely CB1 receptor-ir fiber meshwork” led to a rating of “++” and statements like “dense meshwork of fibers” or “very high concentration of CB1-immunoreactivity” were rated as “+++.” The PET data were classified based on the outcome parameter %ID/ml, ranging from mean values of 1.5–2.6 %ID/ml, and were subdivided into three categories. That is, signals within the interval 1.5–1.8 %ID/ml lead to a rating of “+.” Parameters within the interval 1.8–2.2 %ID/ml were rated as “++” and signals within the interval 2.2–2.6 %ID/ml were classified as “+++.” As there was no brain region devoid of a PET signal, the category “−” was omitted here.

[9] = target: T1, CB1 receptor; assay: [18F]MK-9470 PET in a CB1 receptor knock-out mouse and a wild-type mouse (re-analysis of the whole time course); assay type: in vivo; set-up: Two mice, a CB1 receptor-deficient mouse, and a wild-type mouse; from tissue; host or cells: brain of a living wild-type mouse; the CB1-/- mouse serves as the receptor-free control; settings: CB1 knock-out vs wild-type mouse
Procedure: as §1, §2

[10] = Tectum mesencephalic: colliculus inferior
[11] = Tectum mesencephalic: colliculus superior

Structure (SMILES): [11CH3]Oc1ccc(-c2c(C#N)c(C(=O)NN3CCCCC3)nn2-c2ccc(Cl)cc2Cl)cc1 [[^11C]OMAR, 1–(2,4-dichlorophenyl)-4-cyano-5–(4-[^11C]methoxyphenyl)-N-(piperidin-1-yl)-1H-pyrazole-3-carboxamide]
- lower uptake in knock-out mice as compared to wild-type mice [1]: 50%
- %ID/ml values in mouse brain regions [2]: 2.5–6 %ID/ml

Structure (SMILES): Cc1ccc(OC(C)(C)C(=O)N[C@@H](C)[C@@H](Cc2ccc(OCCF)cc2)c2cccc(C#N)c2)nc1 [[^18F]MK-9470, N-(1S,2S)-2–(3-cyanophenyl)-3–[4-(2-[^18F]fluoroethoxy)phenyl]-1-methylpropyl-2-methyl-2-[(5-methylpyridin-2-yl)oxy]propanamide]
- IC50 [3]: 0.7 nM

Structure (SMILES): Cc1ccc(OC(C)(C)C(=O)N[C@@H](C)[C@@H](Cc2ccc(OCC[18F])cc2)c2cccc(C#N)c2)nc1 [[^18F]MK-9470, N-(1S,2S)-2–(3-cyanophenyl)-3–[4-(2-[^18F]fluoroethoxy)phenyl]-1-methylpropyl-2-methyl-2-[(5-methylpyridin-2-yl)oxy]propanamide]
- level of the unspecific signal in the CB1 receptor knock-out mouse, of the maximum signal measured in the wild-type mice ([4]; whole brain VOI, n = 2): about 20%
- unspecific binding, of the signal present in a wild-type mouse ([4]; whole brain, period of 40–60 min): approximately 20%
- lipophilicity, logD7.3 [5]: 4.7
- time to plateau after injection [6]: approximately 120 min
- time to plateau after injection ([7]; rat brain, ref Casteels et al., 2012): approximately 300 min
- portion of the signal allocated to unspecific binding ([7]; rats, receptor blocking with rimonabant before PET, ref Miederer et al., 2013): 58%
- Category of [^18F]MK-9470 accumulation ([8]; Amygdala): ++ (Parameters within the interval 1.8–2.2 %ID/ml were rated as “++”)
- [^18F]MK-9470 %ID/ml ([8]; Amygdala): 1.87 ± 0.38 %ID/ml
- Category of [^18F]MK-9470 accumulation ([8]; Basal forebrain septum): ++ (Parameters within the interval 1.8–2.2 %ID/ml were rated as “++”)
- [^18F]MK-9470 %ID/ml ([8]; Basal forebrain septum): 2.07 ± 0.29 %ID/ml
- Category of [^18F]MK-9470 accumulation ([8]; Basal ganglia: caudate putamen): +++ (signals within the interval 2.2–2.6 %ID/ml were classified as “+++.”)
- [^18F]MK-9470 %ID/ml ([8]; Basal ganglia: caudate putamen): 2.33 ± 0.40 %ID/ml
- Category of [^18F]MK-9470 accumulation ([8]; Brain stem): ++ (Parameters within the interval 1.8–2.2 %ID/ml were rated as “++”)
- [^18F]MK-9470 %ID/ml ([8]; Brain stem): 1.95 ± 0.36 %ID/ml
- Category of [^18F]MK-9470 accumulation ([8]; Cerebellum (whole region)): ++ (Parameters within the interval 1.8–2.2 %ID/ml were rated as “++”)
- [^18F]MK-9470 %ID/ml ([8]; Cerebellum (whole region)): 2.11 ± 0.40 %ID/ml
- Category of [^18F]MK-9470 accumulation ([8]; Cerebral cortex): ++ (Parameters within the interval 1.8–2.2 %ID/ml were rated as “++”)
- [^18F]MK-9470 %ID/ml ([8]; Cerebral cortex): 1.92 ± 0.32 %ID/ml
- Category of [^18F]MK-9470 accumulation ([8]; Hippocampus): +++ (signals within the interval 2.2–2.6 %ID/ml were classified as “+++.”)
- [^18F]MK-9470 %ID/ml ([8]; Hippocampus): 2.29 ± 0.41 %ID/ml
- Category of [^18F]MK-9470 accumulation ([8]; Hypothalamus): ++ (Parameters within the interval 1.8–2.2 %ID/ml were rated as “++”)
- [^18F]MK-9470 %ID/ml ([8]; Hypothalamus): 1.99 ± 0.34 %ID/ml
- Category of [^18F]MK-9470 accumulation ([8]; Mesencephalon (whole region)): +++ (signals within the interval 2.2–2.6 %ID/ml were classified as “+++.”)
- [^18F]MK-9470 %ID/ml ([8]; Mesencephalon (whole region)): 2.41 ± 0.42 %ID/ml
- Category of [^18F]MK-9470 accumulation ([8]; Olfactory bulb): + (signals within the interval 1.5–1.8 %ID/ml lead to a rating of “+.”)
- [^18F]MK-9470 %ID/ml ([8]; Olfactory bulb): 1.47 ± 0.08 %ID/ml
- Category of [^18F]MK-9470 accumulation ([8]; Substantia grisea centralis): +++ (signals within the interval 2.2–2.6 %ID/ml were classified as “+++.”)
- [^18F]MK-9470 %ID/ml ([8]; Substantia grisea centralis (central gray)): 2.56 ± 0.39 %ID/ml
- Category of [^18F]MK-9470 accumulation [8, 10]: +++ (signals within the interval 2.2–2.6 %ID/ml were classified as “+++.”)
- [^18F]MK-9470 %ID/ml [8, 10]: 2.48 ± 0.35 %ID/ml
- Category of [^18F]MK-9470 accumulation [8, 11]: +++ (signals within the interval 2.2–2.6 %ID/ml were classified as “+++.”)
- [^18F]MK-9470 %ID/ml [8, 11]: 2.44 ± 0.37 %ID/ml
- Category of [^18F]MK-9470 accumulation ([8]; Thalamus): +++ (signals within the interval 2.2–2.6 %ID/ml were classified as “+++.”)
- [^18F]MK-9470 %ID/ml ([8]; Thalamus): 2.34 ± 0.35 %ID/ml
- Category of [^18F]MK-9470 accumulation ([8]; Whole-brain): ++ (Parameters within the interval 1.8–2.2 %ID/ml were rated as “++”)
- [^18F]MK-9470 %ID/ml ([8]; Whole-brain): 2.19 ± 0.35 %ID/ml
- range of mean values of %ID/ml over brain regions ([8]; all brain regions, 40–60 min): 1.5–2.6 %ID/ml
- coefficients of variation for all brain regions ([8]; summed images 40–60 min): 5–20%
- kinetics in the mouse brain ([8]; whole brain time course, 60 min): slow kinetics
- time of uptake into the mouse brain after injection ([8]; whole brain, i.v. tail vein): ≤ 5 min
- coefficient of variation of whole-brain radioactivity concentration ([8]; whole brain, interval from maximum to end of acquisition): approximately 12%
- mean value of radioactivity concentration after reaching maximum ([8]; whole mouse brain, from maximum until the end of the acquisition (60 min)): approximately 2.2 %ID/ml
- binding to CB1 receptors in the mouse brain [9]: binds specifically
